Results taken from EP0211584A1, “Antihypertensive agents” (AMERICAN HOME PRODUCTS CORPORATION, priority 1985, dated 1987).
Read-outs that look alike come from different tables or passages of the source.

Tests used:
[1] = system: isolated paced intact rabbit atria; assay: Cardiac depressant (negative inotropic) effect in isolated paced rabbit atria; settings: Oryctolagus cuniculus; for IC25: read-out: IC25 (concentration which produces 25% inhibition of isometric force)
Description: The potential for detrimental cardiac depressant (negative inotropic) effects of the compounds of this invention was assessed in isolated paced intact rabbit atria. […] Muscles (N=5-9/compound) were stimulated at a frequency of 3Hz with a WPI stimulator for a 60 minute equilibration period. Changes in isometric force were recorded as described for the aortic smooth muscle experiments, supra. […]

[2] = system: arterial actin-myosin interactions; assay: Inhibition of superprecipitation (antagonism of actin-myosin interaction), Silver et al.; type: biochemical; settings: six minute time-point
Description: . The data reported herein was obtained at a six minute time-point rather than the 1.5, 5 and 12 minute time points indicated in the superprecipita- tion assay of the Silver et al paper.
(§1) The following examples illustrate the preparation of a representative number of compounds of this invention. After each example, the Ca+2 antagonist activity of the compound is presented in terms of percent relaxation of aortic tissue (P.R.) at 10-^5M concentration. […] Inhibition of super- precipitation (Antag. of Actin-Myosin interaction) is expressed as percent inhibition (mean ± standard error of the mean for at least 3 separate experiments) at a compound concentration. In the same manner, inhibition of myosin light chain phosphorylation (Antag. of MLCP) is expressed as a percent inhibition at a compound concentration. Similarly, the antihypertensive activity is reported in terms of millimetres mercury (mmHg) systolic blood pressure (B.P.) reduction at the stated time post 50 mg/kg oral dosing or other dosing as indicated.

[3] = molecular target: Ca^+2-calmodulin dependent myosin light chain phosphorylation (Bos taurus, UniProt Q28824); assay: Inhibition of myosin light chain phosphorylation (MLCP), Silver et al.; type: biochemical; settings: read-out: Antag. of MLCP (percent inhibition of myosin light chain phosphorylation)
Description: The data reported herein was obtained at a six minute time-point rather than the 1.5, 5 and 12 minute time points indicated in the superprecipita- tion assay of the Silver et al paper.
as §1

[4] = system: spontaneously hypertensive rats; assay: Hypotensive effect: systolic blood pressure of spontaneously hypertensive rats; type: in vivo; settings: mmHg per method
Description: The hypotensive in vivo effect of the compounds of this invention was determined by measuring changes in the systolic blood pressure of spontaneously hypertensive rats with a Decker Caudal Plethysmograph. The compound being tested was administered to a group of 4 rats and their systolic pressure was determined prior to and at 1.5 and 4 hours after compound administration. Initial testing was done by oral administration of the compound. Results (mmHg) are expressed as decreases in systolic blood pressure.
as §1

[5] = system: rabbit aortic smooth muscle; assay: Ca+2 antagonism: relaxation of KCl-depolarized rabbit aortic smooth muscle strips; settings: 20 min; for inhibition at 10 µM: Oryctolagus cuniculus, read-out: P.R. (percent relaxation of aortic tissue)
Description: The composition of PSS was as follows (mM): NaCl 112,KCI 5, NaHCO3 25 KH2PO4 1, MgSO4 1.2, CaCl2 2.5, dextrose 10. The lower end of each tissue strip was attached to a fixed post and the upper end to a Statham UC-4 transducer. Changes in force development were recorded on a Beckman Dynograph Polygraphic Recorder.
Following equilibration, the muscles were contracted in a depolarizing solution of PSS in which 100mM KCI was substituted for an equimolar concentration of NaCI. Following attainment of steady- state isometric force (20 min.), the test compound was added to afford a final concentration of 1 x 10^-5M. The inhibitory effect, expressed as percent relaxation, was determined from the mean of two experiments twenty minutes after the addition of the compound being tested.
as §1

[6] = dose 50mg/kg oral, at 1.5 hours
[7] = compound 1 x 10^-5M, 100mM KCl contraction, 20 minutes after addition, mean of two experiments
[8] = dose 50mg/kg oral, at 1.5 hours, 50 mg/kg
[9] = dose 50mg/kg oral, at 4 hours, 50 mg/kg
[10] = dose 25mg/kg oral, at 1.5 hours
[11] = rabbit atria paced at 3Hz, 30°C, cumulative dosing

SMILES | Antag. of Actin-Myosin (percent inhibition of superprecipitation) ([2]; 100µM) | inhibition at 100 µM [3] | inhibition at 10 µM [5, 7] | Antag. of Actin-Myosin (percent inhibition of superprecipitation) ([2]; 50µM) | inhibition at 50 µM [3] | B.P. (systolic blood pressure reduction) [4, 10] | further results
COC(=O)C1=C(C)NC(C)=C(C(=O)OC)C1c1ccccc1[N+](=O)[O-] [nifedipine, reference compound] |  |  |  |  |  |  | IC25 [1]: 50 nM
COC(COC(=O)C1=C(C)NC2=C(C(=O)CNC2)C1c1cccc(Cl)c1)c1ccccc1 (centres unmarked) [Example 11, 4-(3-Chloroahenyl)-1,4,5,6,7,8-hexahydro-2-methyl-5-oxo-1,7--naphthyridine-3-carboxylic acid. 2-methoxv-2-phenvlethvl ester] | 53% | 48% | 31% |  |  |  | B.P. (systolic blood pressure reduction) [4, 6]: -29 mm
CO[C@H](COC(=O)C1=C(C)NC2=C(C(=O)CNC2)C1c1c(F)c(F)c(F)c(F)c1F)c1ccccc1 (single isomer, unassigned) [Example 8 Diastereomer A, 1,4,5,6,7,8-Hexahydro-2-methyl-5-oxo-4-(R or S-pentafluorophenyl)-1,7-naphthyridine-3-carboxylic acid(S)-2-methoxy-2-phenylethyl esters] | 69% | 63% |  | 28% | 28% |  | B.P. (systolic blood pressure reduction) [4, 8]: -73 mm; B.P. (systolic blood pressure reduction) [4, 9]: -86 mm; inhibition at 10 µM ([5]; 10^-5M, Note: Muscles were pre-treated): 50%
CC1=C(C(=O)OCC(C)(C)Oc2ccccc2)C(c2c(F)c(F)c(F)c(F)c2F)C2=C(CNCC2=O)N1 (centres unmarked) [Example 20, 1,4,5,6,7,8-Hexahydro-2-methyl-5-oxo-4-(pentafluorophenyl)-1,7-naphthyridine-3-carboxylic acid 2-methyl-2-phenoxypropyl ester] | 67% | 62% | 51% |  |  | -64 mm | 
CCOC(=O)C1=C(C)NC(C)=C(C(=O)OC)C1c1cccc([N+](=O)[O-])c1 (centres unmarked) [nitrendipine, reference compound] |  |  |  |  |  |  | IC25 [1, 11]: 350 nM
CC1=C(C(=O)OCCOc2ccccc2)C(c2c(F)ccc(Cl)c2Cl)C2=C(CNCC2=O)N1 (centres unmarked) [Example 24, 4-(2,3-Dichloro-6-fluorophenyl)-1,4,5,6,7,8-hexahydro-2-methyl-5-oxo-1,7-naphthyridine-3-carboxylic acid 2-phenoxyethyl ester] | 72±1% | 68 ± 1% | 65% | 54±3% | 50 ± 2% |  | Antag. of Actin-Myosin (percent inhibition of superprecipitation) ([2]; 25µM): 9±2%; IC25 [1, 11]: 10000 nM; inhibition at 25 µM [3]: 8 ± 2%
NCCCCCCNS(=O)(=O)c1cccc2c(Cl)cccc12 [Example W-7, reference compound] |  |  |  |  |  |  | inhibition at 10 µM ([1]; read-out: inhibition of isometric force): < 20%
CC1=C(C(=O)OCCOc2ccccc2)C(c2c(F)ccc(C)c2Cl)C2=C(CNCC2=O)N1 (centres unmarked) [Example 23, 4-(2-chloro-6-fluoro-3-methylphenyl)-1,4,5,6,7,8-hexahydro-2-methyl-5-oxo-1,7-naphthyridine-3-carboxylic acid 2-phenoxyethyl ester] | 62% | 56% | 67% | 23% | 18% | -22 mm | B.P. (systolic blood pressure reduction) ([4]; dose 25mg/kg oral, at 4 hours): -31 mm
COc1ccc(CCN(C)CCCC(C#N)(c2ccc(OC)c(OC)c2)C(C)C)cc1OC (centres unmarked) [Verapamil, reference compound] |  |  |  |  |  |  | IC25 [1]: 60 nM
CC1=C(C(=O)OCCOc2ccccc2)C(c2c(F)ccc(F)c2F)C2=C(CNCC2=O)N1 (centres unmarked) [Example 16, 1,4,5,6,7,8-Hexahydro-2-methyl-5-oxo-4-(2,3,6-trifluorophenyl)-1,7-naphthyridine-3-carboxylic acid 2-phenoxyethyl ester] | 34% | 28% | 63% |  |  | -37 mm | 
CO[C@H](COC(=O)C1=C(C)NC2=C(C(=O)CNC2)C1c1c(F)c(F)c(F)c(F)c1F)c1ccccc1 (single isomer, unassigned) [Example 8 Diastereomer B, 1,4,5,6,7,8-Hexahydro-2-methyl-5-oxo-4-(R or S-pentafluorophenyl)-1,7-naphthyridine-3-carboxylic acid(S)-2-methoxy-2-phenylethyl esters] | 64% |  |  | 30% |  |  | B.P. (systolic blood pressure reduction) [4, 8]: -28 mm; B.P. (systolic blood pressure reduction) [4, 9]: -67 mm; P.R. (percent relaxation of aortic tissue) ([5]; 10^-5M, Note: Muscles were pre-treated, 10 µM): 53%
COC(COC(=O)C1=C(C)NC2=C(C(=O)CNC2)C1c1c(F)cccc1Cl)c1ccccc1 (centres unmarked) [Example 9, 4-(2-Chloro-6-fluoroohenyl)-1,4,5,6,7,8-hexahydro-2-methyl-5-oxo-1,7-naphthyridine-3-carboxylic acid 2-methoxy-2-phenylethyl ester] | 40% | 44% | 28% |  |  |  | B.P. (systolic blood pressure reduction) [4, 6]: -37 mm; B.P. (systolic blood pressure reduction) ([4]; dose 50mg/kg oral, at 4 hours): -14 mm
CC1=C(C(=O)OCCOc2cccc(Cl)c2Cl)C(c2c(F)c(F)c(F)c(F)c2F)C2=C(CNCC2=O)N1 (centres unmarked) [Example 22, 1,4,5,6,7,8-Hexahydro-2-methyl-5-oxo-4-(pentafluorophenyl)-1,7-naphthyridine-3-carboxylic acid 2-(2,3-dichlorphenoxy)ethyl ester] | 78±1% | 74 ± 2% | 61% | 75±4% | 73 ± 1.5% | -37 mm | Antag. of Actin-Myosin (percent inhibition of superprecipitation) ([2]; 10µM): 30±3%; Antag. of Actin-Myosin (percent inhibition of superprecipitation) ([2]; 25µM): 54±3%; inhibition at 10 µM ([3]; 10µM): 25%; inhibition at 25 µM [3]: 54 ± 2.5%; B.P. (systolic blood pressure reduction) ([4]; dose 25mg/kg oral, at 4 hours): -52 mm
